Read-outs that look alike come from different tables or passages of the source.
Test system: HBsAg secretion, HepG2-Clone42 cells (Tet-inducible HBV-expressing, HBV ayw strain)
Assay: HBsAg assay (HBsAg ELISA, secreted HBV sAg from HepG2-Clone42 cells)
Assay type: cell-based
Protocol: HepG2-Clone42, a Tet-inducible HBV-expressing cell line with a stably integrated 1.3 mer copy of the HBV ayw strain, was generated based on the Tet-inducible HepAD38 cell line with slight modifications. Ladner S K, et al., Antimicrobial Agents and Chemotherapy. 41(8):1715-1720 (1997). HepG2-Clone42 cells were cultured in DMEM/F-12+Glutamax™ (Life Technologies, Carlsbad, Calif., USA), supplemented with 10% fetal bovine serum (Life Technologies), G-418 (Corning, Manassas, Va., USA) at a final concentration of 0.5 mg/mL, and 5 μg/mL Doxycycline (Sigma, St. Louis, Mo., USA) and maintained in 5% CO2 at 37° C.
HepG2-Clone42 cells were seeded into black clear-bottom 96-well plates at a concentration of 6.0×10^4 cells/well. 24 hours post-seeding, the cells were treated with 200 μl/well of media containing five-fold serial dilutions of compounds in DMSO. DMSO alone was used as the no drug control. The final DMSO concentration in all wells was 0.5%.
The HBsAg ELISA kit (Alpha Diagnostic International, San Antonio, Tex., USE, Catalog #4110) was used to determine the level (semi-quantitative) of secreted HBV sAg. The HBSAg ELISA assay was performed following the manufacturer's protocol as described.
Step 1. Pipet 100 μL each of compound or DMSO treated samples into HBsAg ELISA plates. Seal plates and incubate at room temp for 60 minutes.
Step 2. Aspirate samples and wash three times with Wash Buffer. Dispense 100 μL of antibody-HRP conjugate to each well. Incubate at room temp for 30 minutes.
Step 3. Aspirate samples and wash three times with Wash Buffer. Add 100 μL of TMB Substrate to all wells and incubate 15 minutes at room temp.
Step 4. Dispense 100 μL of Stop Solution to each well. Measure absorbance of ELISA plate at 450 nm.
Dose-response curves were generated and the EC50 value was defined as the compound concentration at which HBsAg secretion was reduced 50% compared to the DMSO control.
EC50 values were determined as follows:
Determine the percent of HBsAg secretion inhibition. Calculate the percent inhibition on of HBsAg secretion inhibition using the following equation: […]
where XC is the absorbance signal from compound-treated well; MB is average absorbance signal (background signal) for column 12 (no cells+HBsAg ELISA sample buffer) and MD is average absorbance signal from DMSO-treated wells. Then calculate EC50 values by non-linear regression using a four parameter curve logistic equation.
The curve fit model employed is XLFit Dose Response One Site Model 204: y=(A+((B−A)/(1+(10^((C−x)*D))))) where A is the minimum y value, B is the maximum y value, C is the log EC50 value, and D is the slope factor. In the following table+≥100 nM; 100 nM>++≥1 nM; 1 nM>+++

[1] = Hepatitis B virus, read-out: HBsAg (nM), EC50 = concentration at which HBsAg secretion was reduced 50% compared to DMSO control
[2] = read-out: HBsAg, EC50 = concentration at which HBsAg secretion was reduced 50% compared to DMSO control

Compound | EC50 [1] [nM] | EC50 [2] [nM]
CC(C)(C)C1Cn2nc3c(OCC4(C#N)CC4)cccc3c2-c2cc(=O)c(C(=O)O)cn21 (racemic) [Example 2.46, 6-(tert-butyl)-10-((1-cyanocyclopropyl)methoxy)-2-oxo-6,7-dihydro-2H-pyrido[2′,1′:3,4]pyrazino[1,2-b]indazole-3-carboxylic Acid] | 1 to 100 | 
CC(C)(C)C1Cn2nc3c(OCCF)cccc3c2-c2cc(=O)c(C(=O)O)cn21 (racemic) [Example 2.41, 6-(tert-butyl)-10-(2-fluoroethoxy)-2-oxo-6,7-dihydro-2H-pyrido[2′,1′:3,4]pyrazino[1,2-b]indazole-3-carboxylic Acid] | < 1 | 
CCOc1cccc2c3n(nc12)CC(C(C)(C)C)n1cc(C(=O)O)c(=O)cc1-3 (racemic) [Example 2.42, 6-(tert-butyl)-10-ethoxy-2-oxo-6,7-dihydro-2H-pyrido[2′,1′:3,4]pyrazino[1,2-b]indazole-3-carboxylic Acid] | < 1 | 
COCCOc1cccc2c3n(nc12)C1CCC(C)(C)C1n1cc(C(=O)O)c(=O)cc1-3 (single isomer, unassigned) [Example 6.2-II, 12-(2-methoxyethoxy)-3,3-dimethyl-7-oxo-2,3,3a,14a-tetrahydro-1H,7H-cyclopenta[5,6]pyrido[2′,1′:3,4]pyrazino[1,2-b]indazole-6-carboxylic Acid] |  | < 1
COCC(C)(C)C1Cn2nc3c(OC)cccc3c2-c2cc(=O)c(C(=O)O)cn21 (single isomer, unassigned) [Example 4.1-I, 10-methoxy-6-(1-methoxy-2-methylpropan-2-yl)-2-oxo-6,7-dihydro-2H-pyrido[2′,1′:3,4]pyrazino[1,2-b]indazole-3-carboxylic Acid] |  | < 1
COCCOCCCOc1cccc2c3n(nc12)CC(C(C)(C)C)n1cc(C(=O)O)c(=O)cc1-3 (racemic) [Example 2.21, 6-(tert-butyl)-10-(3-(2-methoxyethoxy)propoxy)-2-oxo-6,7-dihydro-2H-pyrido[2′,1′:3,4]pyrazino[1,2-b]indazole-3-carboxylic Acid] | < 1 | 
CC(C)Oc1cccc2c3n(nc12)CC(C(C)(C)C)n1cc(C(=O)O)c(=O)cc1-3 (single isomer, unassigned) [Example 2.47-I, 6-(tert-butyl)-10-isopropoxy-2-oxo-6,7-dihydro-2H-pyrido[2′,1′:3,4]pyrazino[1,2-b]indazole-3-carboxylic Acid] |  | > 100
COc1cccc2c3n(nc12)CC(C(C)(C)C)n1cc(C(=O)O)c(=O)cc1-3 (single isomer, unassigned) [Example 1.1-I, 6-(tert-butyl)-10-methoxy-2-oxo-6,7-dihydro-2H-pyrido[2′,1′:3,4]pyrazino[1,2-b]indazole-3-carboxylic acid] |  | < 1
CC(C)(C)C1Cn2nc3c(OCC(O)CO)cccc3c2-c2cc(=O)c(C(=O)O)cn21 (racemic) [Example 2.28, 6-(tert-butyl)-10-(2,3-dihydroxypropoxy)-2-oxo-6,7-dihydro-2H-pyrido[2′,1′:3,4]pyrazino[1,2-b]indazole-3-carboxylic Acid] | > 100 | 
COc1cccc2nn3c(c12)-c1cc(=O)c(C(=O)O)cn1C(C(C)(C)C)C3 (single isomer, unassigned) [Example 1.4-I, 6-(tert-butyl)-13-methoxy-2-oxo-6,7-dihydro-2H-pyrido[2′,1′:3,4]pyrazino[1,2-b]indazole-3-carboxylic acid] |  | > 100
CC(C)(C)C1Cn2nc3c(OCCCO)cccc3c2-c2cc(=O)c(C(=O)O)cn21 (racemic) [Example 2.17, 6-(tert-butyl)-10-(3-hydroxypropoxy)-2-oxo-6,7-dihydro-2H-pyrido[2′,1′:3,4]pyrazino[1,2-b]indazole-3-carboxylic Acid] | < 1 | 
CCOC(=O)c1cn2c(cc1=O)-c1c3cccc(OCCCOC)c3nn1CC2C(C)(C)C (racemic) [Example 2.1i, ethyl 6-(tert-butyl)-10-(3-methoxypropoxy)-2-oxo-6,7-dihydro-2H-pyrido[2′,1′:3,4]pyrazino[1,2-b]indazole-3-carboxylate] | 1 to 100 | 
CC(C)COc1cccc2c3n(nc12)CC(C(C)(C)C)n1cc(C(=O)O)c(=O)cc1-3 (racemic) [Example 2.16, 6-(tert-butyl)-10-isobutoxy-2-oxo-6,7-dihydro-2H-pyrido[2′,1′:3,4]pyrazino[1,2-b]indazole-3-carboxylic Acid] | < 1 | 
CC(C)(C)C1Cn2nc3c(OCC4CCCO4)cccc3c2-c2cc(=O)c(C(=O)O)cn21 (stereo not drawn) [Example 2.25, 6-(tert-butyl)-2-oxo-10-((tetrahydrofuran-2-yl)methoxy)-6,7-dihydro-2H-pyrido[2′,1′:3,4]pyrazino[1,2-b]indazole-3-carboxylic Acid] | 1 to 100 | 
CC(C)(C)C1Cn2nc3c(OC[C@H]4CCC(=O)N4)cccc3c2-c2cc(=O)c(C(=O)O)cn21 (single isomer, unassigned) [Example 2.34-II] |  | > 100
CC(C)(C)C1Cn2nc3c(OCCCOC(F)(F)F)cccc3c2-c2cc(=O)c(C(=O)O)cn21 (racemic) [Example 2.19, 6-(tert-butyl)-2-oxo-10-(3-(trifluoromethoxy)propoxy)-6,7-dihydro-2H-pyrido[2′,1′:3,4]pyrazino[1,2-b]indazole-3-carboxylic Acid] | < 1 | 
CC(C)(C)C1Cn2nc3c(OCC4COCCO4)cccc3c2-c2cc(=O)c(C(=O)O)cn21 (racemic) [Example 2.22, 10-((1,4-dioxan-2-yl)methoxy)-6-(tert-butyl)-2-oxo-6,7-dihydro-2H-pyrido[2′,1′:3,4]pyrazino[1,2-b]indazole-3-carboxylic Acid] | 1 to 100 | 
COCCCOc1cccc2c3n(nc12)CC(C(C)(C)C)n1cc(C(=O)O)c(=O)c(F)c1-3 (single isomer, unassigned) [Example 8.1-II, 6-(tert-butyl)-1-fluoro-10-(3-methoxypropoxy)-2-oxo-6,7-dihydro-2H-pyrido[2′,1′:3,4]pyrazino[1,2-b]indazole-3-carboxylic Acid] |  | 1 to 100
CC(C)(C)C1Cn2nc3c(OC4CCOCC4)cccc3c2-c2cc(=O)c(C(=O)O)cn21 (racemic) [Example 2.38, 6-(tert-butyl)-2-oxo-10-((tetrahydro-2H-pyran-4-yl)oxy)-6,7-dihydro-2H-pyrido[2′,1′:3,4]pyrazino[1,2-b]indazole-3-carboxylic Acid] | 1 to 100 | 
CC(C)(C)C1Cn2nc3c(OCCC(F)(F)F)cccc3c2-c2cc(=O)c(C(=O)O)cn21 (racemic) [Example 2.40, 6-(tert-butyl)-2-oxo-10-(3,3,3-trifluoropropoxy)-6,7-dihydro-2H-pyrido[2′,1′:3,4]pyrazino[1,2-b]indazole-3-carboxylic Acid] | < 1 | 
COc1cccc2c3n(nc12)C1CCC(C)(C)C1n1cc(C(=O)O)c(=O)cc1-3 (single isomer, unassigned) [Example 5.1-II, 12-methoxy-3,3-dimethyl-7-oxo-2,3,3a,14a-tetrahydro-1H,7H-cyclopenta[5,6]pyrido[2′,1′:3,4]pyrazino[1,2-b]indazole-6-carboxylic Acid] |  | > 100
COc1cccc2c3n(nc12)CC(C(C)(C)CO)n1cc(C(=O)O)c(=O)cc1-3 (single isomer, unassigned) [Example 3.1-I, 6-(1-hydroxy-2-methylpropan-2-yl)-10-methoxy-2-oxo-6,7-dihydro-2H-pyrido[2′,1′:3,4]pyrazino[1,2-b]indazole-3-carboxylic Acid] |  | > 100
COc1cccc2nn3c(c12)-c1cc(=O)c(C(=O)O)cn1C(C(C)(C)C)C3 (single isomer, unassigned) [Example 1.4-II, 6-(tert-butyl)-13-methoxy-2-oxo-6,7-dihydro-2H-pyrido[2′,1′:3,4]pyrazino[1,2-b]indazole-3-carboxylic acid] |  | 1 to 100
CC(C)(C)C1Cn2nc3c(OCCO)cccc3c2-c2cc(=O)c(C(=O)O)cn21 (racemic) [Example 2.18, 6-(tert-butyl)-10-(2-hydroxyethoxy)-2-oxo-6,7-dihydro-2H-pyrido[2′,1′:3,4]pyrazino[1,2-b]indazole-3-carboxylic Acid] | 1 to 100 | 

— US10975078B2, “Fused indazole pyridone compounds as antivirals” (priority 2017, dated 2021)
